Assay results published in US20240109900A1, “AZABICYCLIC SHP2 INHIBITORS” (IRBM S.P.A., priority 2021, published 2024).
pIC50: −log10 of the molar value.

Tests used:
[1] = target: SHP-2 enzyme (Met1-Leu525) (Homo sapiens (Human), UniProt Q06124); experiment: SHP2 inhibition enzymatic assay; type: biochemical; conditions: 0.5 nM SHP-2 activated by 500 nM IRS1 peptide, 75 μM DiFMUP substrate; read-out: SHP2wt-IC50
Method in brief: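 SHP-2 (Met1-Leu525), 0.5 nM, activated with 500 nM IRS1 bis-phosphopeptide, preincubated 30 min with compounds in HEPES pH 7.2 buffer with 5 mM DTT. 75 μM DiFMUP added for 30 min at room temperature, stopped with bpV; fluorescence read. IC50 from four-parameter logistic fit of % inhibition.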

[2] = test system: ERK phosphorylation in KYSE-520 cells; experiment: Phospho-ERK cellular assay; type: cell-based; conditions: Homo sapiens, KYSE-520, 2 h, KYSE-520 cells, 2 h at 37° C., phospho-ERK1/2 (Thr202/Tyr204) TR-FRET; read-out: PERK IC50
Method in brief: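 TR-FRET read-out of ERK1/2 Thr202/Tyr204 phosphorylation was taken after overnight antibody incubation at room temperature. Before that, KYSE-520 cells were treated 2 h at 37 °C with compound dilutions and lysed 30 min. Percent inhibition relative to vehicle and cell-free wells was fitted four-parametrically to give IC50.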

SHP-2 enzyme (Met1-Leu525), sequence (Q06124 1-525): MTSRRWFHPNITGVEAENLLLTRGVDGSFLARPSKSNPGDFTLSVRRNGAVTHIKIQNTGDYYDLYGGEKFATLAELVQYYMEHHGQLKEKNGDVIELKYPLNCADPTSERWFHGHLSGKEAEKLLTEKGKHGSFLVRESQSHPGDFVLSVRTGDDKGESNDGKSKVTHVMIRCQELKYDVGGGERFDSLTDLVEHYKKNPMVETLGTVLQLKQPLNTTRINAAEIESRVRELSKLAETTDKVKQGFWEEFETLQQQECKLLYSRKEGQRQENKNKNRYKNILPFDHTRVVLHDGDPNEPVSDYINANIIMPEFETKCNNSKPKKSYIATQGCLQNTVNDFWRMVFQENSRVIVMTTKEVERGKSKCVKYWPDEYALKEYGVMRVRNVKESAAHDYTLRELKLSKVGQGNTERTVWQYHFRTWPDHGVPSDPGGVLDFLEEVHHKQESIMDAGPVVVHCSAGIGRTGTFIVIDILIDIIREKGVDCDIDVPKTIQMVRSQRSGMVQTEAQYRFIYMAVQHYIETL

Compound | pIC50 [1] | pIC50 [2]
NC[C@]1(c2ccccc2F)[C@@H]2CCN(c3cnc4c(-c5cc6cccnc6cc5F)n[nH]c4n3)C[C@@H]21 [Example 175, ((1S,6R,7R)-7-(2-fluorophenyl)-3-(3-(7-fluoroquinolin-6-yl)-1H-pyrazolo[3,4-b]pyrazin-6-yl)-3-azabicyclo[4.1.0]heptan-7-yl)methanamine] | > 6.30 | > 6.00
NC[C@]1(c2ccccc2F)[C@@H]2CCN(c3cnc4c(-c5ccncc5Cl)n[nH]c4n3)C[C@@H]21 [Example 176, ((1S,6R,7R)-3-(3-(3-chloropyridin-4-yl)-1H-pyrazolo[3,4-b]pyrazin-6-yl)-7-(2-fluorophenyl)-3-azabicyclo[4.1.0]heptan-7-yl)methanamine] | > 6.30 | > 6.00
Cc1c(-c2n[nH]c3nc(N4CC[C@@H]5[C@H](C4)[C@@]5(CN)c4cccc(F)c4F)cnc23)ccc2nn(C)cc12 [Example 177, ((1S,6R,7R)-7-(2,3-difluorophenyl)-3-(3-(2,4-dimethyl-2H-indazol-5-yl)-1H-pyrazolo[3,4-b]pyrazin-6-yl)-3-azabicyclo[4.1.0]heptan-7-yl)methanamine] | > 6.30 | > 6.00
NC[C@]1(c2cccc(F)c2F)[C@@H]2CCN(c3cnc4c(-c5ccnc(N)c5Cl)n[nH]c4n3)C[C@@H]21 [Example 178, 4-(6-((1S,6R,7R)-7-(aminomethyl)-7-(2,3-difluorophenyl)-3-azabicyclo[4.1.0]heptan-3-yl)-1H-pyrazolo[3,4-b]pyrazin-3-yl)-3-chloropyridin-2-amine] | > 6.30 | > 6.00
Cc1c(-c2n[nH]c3nc(N4CC[C@@H]5[C@H](C4)[C@@]5(CN)c4ncccc4F)cnc23)ccc2nn(C)cc12 [Example 179, ((1S,6R,7S)-3-(3-(2,4-dimethyl-2H-indazol-5-yl)-1H-pyrazolo[3,4-b]pyrazin-6-yl)-7-(3-fluoropyridin-2-yl)-3-azabicyclo[4.1.0]heptan-7-yl)methanamine] | > 6.30 | > 6.00
Cc1c(-c2n[nH]c3nc(N4CC[C@@H]5[C@H](C4)[C@@]5(CN)c4ccccc4Cl)cnc23)ccc2nn(C)cc12 [Example 180, ((1S,6R,7R)-7-(2-chlorophenyl)-3-(3-(2,4-dimethyl-2H-indazol-5-yl)-1H-pyrazolo[3,4-b]pyrazin-6-yl)-3-azabicyclo[4.1.0]heptan-7-yl)methanamine] | > 6.30 | > 6.00
NC[C@]1(c2ccccc2Cl)[C@@H]2CCN(c3cnc4c(-c5ccnc(N)c5Cl)n[nH]c4n3)C[C@@H]21 [Example 181, 4-(6-((1S,6R,7R)-7-(aminomethyl)-7-(2-chlorophenyl)-3-azabicyclo[4.1.0]heptan-3-yl)-1H-pyrazolo[3,4-b]pyrazin-3-yl)-3-chloropyridin-2-amine] | > 6.30 | > 6.00
Cc1c(-c2n[nH]c3nc(N4CC[C@@H]5[C@H](C4)[C@@]5(CN)c4ccccc4C(F)(F)F)cnc23)ccc2nn(C)cc12 [Example 182, ((1S,6R,7R)-3-(3-(2,4-dimethyl-2H-indazol-5-yl)-1H-pyrazolo[3,4-b]pyrazin-6-yl)-7-(2-(trifluoromethyl)phenyl)-3-azabicyclo[4.1.0]heptan-7-yl)methanamine] | > 6.30 | > 6.00
COc1ccc(-c2n[nH]c3nc(N4CC[C@@H]5[C@H](C4)[C@@]5(CN)c4cccc(F)c4F)cnc23)c2cccnc12 [Example 183, ((1S,6R,7R)-7-(2,3-difluorophenyl)-3-(3-(8-methoxyquinolin-5-yl)-1H-pyrazolo[3,4-b]pyrazin-6-yl)-3-azabicyclo[4.1.0]heptan-7-yl)methanamine] | > 6.30 | > 6.00
Cc1cccc([C@@]2(CN)[C@@H]3CCN(c4cnc5c(-c6ccc7nn(C)cc7c6C)n[nH]c5n4)C[C@@H]32)c1F [Example 184, ((1S,6R,7R)-3-(3-(2,4-dimethyl-2H-indazol-5-yl)-1H-pyrazolo[3,4-b]pyrazin-6-yl)-7-(2-fluoro-3-methylphenyl)-3-azabicyclo[4.1.0]heptan-7-yl)methanamine] | > 6.30 | > 6.00
